Literature values as cited in paper PMC4461526 (Bioorganic & medicinal chemistry, 2015).

Experiments:
Human ABCC2 [1] = molecular target: T1, Human ABCC2 (Homo sapiens, UniProt Q92887); details: ref 30 (Kidron et al.)
Human ABCC2 [2] = molecular target: T1, Human ABCC2; details: ref 30 (Kidron et al.); for IC50: read-out: IC50 (inhibitors of EG)

T1 sequence (Q92887 whole entry): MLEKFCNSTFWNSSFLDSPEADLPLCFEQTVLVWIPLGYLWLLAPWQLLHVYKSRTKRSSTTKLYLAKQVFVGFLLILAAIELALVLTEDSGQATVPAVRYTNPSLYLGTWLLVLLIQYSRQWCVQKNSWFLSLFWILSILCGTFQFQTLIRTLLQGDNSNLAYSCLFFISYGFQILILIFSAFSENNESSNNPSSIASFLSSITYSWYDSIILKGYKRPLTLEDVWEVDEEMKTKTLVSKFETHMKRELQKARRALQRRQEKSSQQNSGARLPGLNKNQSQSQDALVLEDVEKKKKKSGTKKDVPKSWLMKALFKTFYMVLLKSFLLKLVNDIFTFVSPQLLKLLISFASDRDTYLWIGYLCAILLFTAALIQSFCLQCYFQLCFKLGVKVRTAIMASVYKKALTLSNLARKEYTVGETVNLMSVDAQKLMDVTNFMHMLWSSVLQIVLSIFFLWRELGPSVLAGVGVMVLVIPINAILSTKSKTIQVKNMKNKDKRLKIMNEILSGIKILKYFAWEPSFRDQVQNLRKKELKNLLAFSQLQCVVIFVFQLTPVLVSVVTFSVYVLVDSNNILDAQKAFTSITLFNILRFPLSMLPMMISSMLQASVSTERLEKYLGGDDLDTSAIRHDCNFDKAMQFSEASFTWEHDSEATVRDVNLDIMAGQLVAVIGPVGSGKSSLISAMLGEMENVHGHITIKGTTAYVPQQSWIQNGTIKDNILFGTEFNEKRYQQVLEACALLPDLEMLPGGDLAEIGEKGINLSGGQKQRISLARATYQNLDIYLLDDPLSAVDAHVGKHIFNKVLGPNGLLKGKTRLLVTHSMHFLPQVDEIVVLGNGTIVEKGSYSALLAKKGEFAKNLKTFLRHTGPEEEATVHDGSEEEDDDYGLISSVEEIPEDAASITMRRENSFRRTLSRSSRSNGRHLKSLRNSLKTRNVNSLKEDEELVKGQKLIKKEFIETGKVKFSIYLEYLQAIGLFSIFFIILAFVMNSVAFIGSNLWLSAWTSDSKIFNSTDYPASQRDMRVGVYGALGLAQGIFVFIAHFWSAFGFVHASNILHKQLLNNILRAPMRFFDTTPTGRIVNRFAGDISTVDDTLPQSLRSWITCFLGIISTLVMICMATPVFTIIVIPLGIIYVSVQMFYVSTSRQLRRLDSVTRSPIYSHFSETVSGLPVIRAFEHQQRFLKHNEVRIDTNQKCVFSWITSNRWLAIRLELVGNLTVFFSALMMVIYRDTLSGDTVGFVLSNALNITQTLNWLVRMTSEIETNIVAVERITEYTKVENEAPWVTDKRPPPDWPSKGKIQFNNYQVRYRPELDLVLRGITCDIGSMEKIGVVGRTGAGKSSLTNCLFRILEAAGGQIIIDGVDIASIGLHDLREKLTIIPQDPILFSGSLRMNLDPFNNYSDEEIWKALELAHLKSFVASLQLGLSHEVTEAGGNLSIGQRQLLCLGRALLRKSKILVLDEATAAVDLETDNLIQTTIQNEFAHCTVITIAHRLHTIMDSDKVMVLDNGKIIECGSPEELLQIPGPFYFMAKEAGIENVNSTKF

| SMILES | effect on CDCF transport (Human ABCC2 [1]) | IC50 (Human ABCC2 [2]) | effect on EG transport (Human ABCC2 [2]) |
| --- | --- | --- | --- |
| CCCC1O[C@@H]2C[C@H]3[C@@H]4CCC5=CC(=O)C=C[C@]5(C)[C@H]4[C@@H](O)C[C@]3(C)[C@]2(C(=O)CO)O1 (stereo partly shown) [budes-onide] | stimulating | 40 to 60 µM |  |
| O=C(O)Cc1ccccc1Nc1c(Cl)cccc1Cl [diclofenac] |  |  | stimulators |
| C[C@]12CC[C@@H]3c4ccc(OS(=O)(=O)O)cc4CC[C@H]3[C@@H]1CCC2=O [estrone-3-sulfate] |  |  | stimulators |
| COc1ccc2c(c1)c(CC(=O)O)c(C)n2C(=O)c1ccc(Cl)cc1 [indomethacin] |  |  | stimulators |
| CSc1ccc2c(c1)N(CCC1CCCCN1C)c1ccccc1S2 (stereo not shown) [thioridazine] | stimulating | 40 to 60 µM |  |
